Patent publication US20260317307A1, “Process for the Preparation of Deucravacitinib, and Crystalline Forms Thereof” (Alivus Life Sciences Limited, priority 2023, published 2026)

Key:
[1] = Stability of crystalline form A (polymorphic form identification by XRPD on storage); type: physicochemical; conditions: 1 Month, complies with Form A
Source text: Stability data of crystalline form A of deucravacitinib prepared by the present invention: […]

[2] = Particle size of crystalline form A (Example 38); type: physicochemical

Polymorphic Form Identification: XRPD pattern should exhibit characteristic peaks of Form A at 10.1°, 12.4°, 18.9°, 19.3° and 20.4° ± 0.2° 2 theta ([1]; storage 25 °C/60% RH): Complies
Polymorphic Form Identification: XRPD pattern should exhibit characteristic peaks of Form A at 10.1°, 12.4°, 18.9°, 19.3° and 20.4° ± 0.2° 2 theta ([1]; storage 40 °C/75% RH): Complies
Polymorphic Form Identification: XRPD pattern should exhibit characteristic peaks of Form A at 10.1°, 12.4°, 18.9°, 19.3° and 20.4° ± 0.2° 2 theta ([1]; storage 60 °C/90% RH): Complies
Particle Size D10 ([2]; After jet milling): 1.6 μm
Particle Size D50 ([2]; After jet milling): 3.0 μm
Particle Size D90 ([2]; After jet milling): 5.6 μm
Particle Size D10 ([2]; before jet milling): 9.4 μm
Particle Size D50 ([2]; before jet milling): 21.64 μm
Particle Size D90 ([2]; before jet milling): 39.49 μm
SMILES: [2H]C([2H])([2H])NC(=O)c1nnc(NC(=O)C2CC2)cc1Nc1cccc(-c2ncn(C)n2)c1OC [crystalline form A of deucravacitinib, 6-(cyclopropanecarboxamido)-4-((2-methoxy-3-(1-methyl-1H-1,2,4-triazol-3-yl)phenyl)amino)-N-(trideuteriomethyl)pyridazine-3-carboxamide]
